The values that follow are results of earlier work, collected in PMC7126291 (Bioorganic & Medicinal Chemistry Letters, 2009).

For orientation: IC50 means the concentration that inhibits the measured activity by half.

The subject of one data set is human rhinovirus. As to conditions: Phase II clinical trials, intranasal delivery.

As for `O=C(Oc1cncc(Br)c1)c1ccco1` [Compound 7], the IC50 in the data set on HAV 3C^pro is 0.053 µM.
With `CCOC(=O)/C=C/[C@H](C[C@@H]1CCNC1=O)NC(=O)[C@@H](CC(=O)[C@@H](NC(=O)c1cc(C)on1)C(C)C)Cc1ccc(F)cc1` [rupintrivir], the “reduction of mean total daily symptom score” value in the data set with human rhinovirus is given as 33%.
